According to article PMC8998618, “A Pharmacokinetic and Metabolism Study of the TRPC6 Inhibitor SH045 in Mice by LC-MS/MS” (International Journal of Molecular Sciences, 2022):

Test system: liver, kidney and lung
Assay: histopathological examination of tissue after administration of SH045
Format: in vivo, mice
Conditions: 20 mg/kg BW i.v., single and repeated (5 days); hematoxylin-eosin
Excerpt: Liver, kidney, and lung were collected after repeated administration, fixed and processed for inspection for histopathological alterations (Supplementary Materials SM3).
Larixyl-N-methylcarbamate ((1S,4S,4aR,8aS)-4-((S)-3-hydroxy-3-methylpent-4-en-1-yl)-4a,8,8-trimethyl-3-methylenedeca-hydro-naphthalen-1-yl methylcarbamate, SH045, TRPC6 inhibitor) was synthesized as described by Häfner et al. [1]. (+)-Larixol (internal standard, IS) was isolated from Larix decidua turpentine [2]. Kolliphor® EL was obtained from Caelo (Hilden, Germany). Acetonitrile (ACN), water, and formic acid (LC -MS grade each) were purchased from Fisher Scientific (Schwerte, Germany). […]
SM2 Quantification of SH045 by HPLC and tandem mass spectrometric methods (LC-MS/MS) In brief, chromatographic separation was achieved using a Zorbax Eclipse XDB-C8 column (100 × 3.0 mm, 3.5 μm 80 Å, Agilent Technologies) with linear gradient elution using water and ACN, each with 0.1 % formic acid as additive, during a total run time of 20 min. For quantification (+)-larixol was used as IS. […] Freshly prepared calibration samples for SH045 in plasma and tissue comprised eight concentration levels analyzed in duplicates (2, 5, 10, 100, 200, 800, 1200 and 1600 ng/mL). […]

SMILES: C=C[C@@](C)(O)CC[C@H]1C(=C)C[C@H](OC(=O)NC)[C@H]2C(C)(C)CCC[C@]12C [SH045, (1S,4S,4aR,8aS)-4-((S)-3-Hydroxy-3-methylpent-4-en-1-yl)-4a,8,8-trimethyl-3-methylenedecahydronaphthalen-1-yl methylcarbamate]
- histopathological changes in liver, kidney and lung: no histopathological changes were observed
